In PubChem BioAssay (NCI):
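Grown in 96-well plates, cells were treated for 48 hours with each compound at five concentrations. Insufficient inhibition: endpoint recorded as highest concentration tested. At the TGI there is no net growth.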 Where a SMILES comes first, the peptide text is derived from it. The star is where a group is joined. Cbz = O=C(OCc1ccccc1)*; NHNH2 = NN*

Columns and labels:
Test in all cases: DTP human tumour cell line panel, 48 h
NCI-H522 lung = system: NCI-H522 lung
LOX IMVI melanoma = system: LOX IMVI melanoma
K-562 leukemia = system: K-562 leukemia
HL-60(TB) leukemia = system: HL-60(TB) leukemia
SF-539 CNS = system: SF-539 CNS
SNB-19 CNS = system: SNB-19 CNS
TK-10 renal = system: TK-10 renal
SK-MEL-28 melanoma = system: SK-MEL-28 melanoma
EKVX NSCLC = system: EKVX NSCLC

SMILES	TGI (NCI-H522 lung) [µM]	TGI (LOX IMVI melanoma) [µM]	TGI (K-562 leukemia) [µM]	TGI (HL-60(TB) leukemia) [µM]	TGI (SF-539 CNS) [µM]	TGI (SNB-19 CNS) [µM]	TGI (TK-10 renal) [µM]	TGI (SK-MEL-28 melanoma) [µM]	TGI (EKVX NSCLC) [µM]
COC1(OC)CCCCC2c3cccc(OC(C)=O)c3C21OC(C)=O (centres undefined)	> 100	> 100	> 100	> 100	> 100	> 100	> 100	> 100	> 100
CC(=O)OCC(OC(C)=O)C1C[C@H]2O[C@@H]3[C@H](C[C@H]2O1)O[C@@]1(C[C@@H]3C)C[C@H](C)[C@@H]2O[C@]3(C[C@@H]2O1)C[C@H]1O[C@H]2[C@H](C)[C@H]4OC(=O)CC5CC[C@H]6OC7[C@H]8O[C@]9(CC[C@H]%10CC(O)(CO)[C@H](CC[C@H]%11C[C@@H](C)C(O)(CO)C(C[C@@H]4O[C@H]2C[C@H]1O3)O%11)O%10)CC8O[C@@H]7[C@@H](O9)[C@H]6O5 (some centres undefined)	0.00451	> 0.414	> 1			> 1	> 1	> 1	> 1
COCC1OC(N2C(=O)NC(=O)[C@@H]3C=C4CCCCC4=C[C@@H]32)C(OC)C1OC (some centres undefined)	> 100	> 100	> 100	> 100	> 100	> 100	> 100	> 100	> 100
CCOC(=O)/C(C#N)=N\Nc1ccc(-n2c(C)nc3ccccc3c2=O)cc1		> 100	> 100	> 100	> 100	> 100	> 100	> 100	> 100
Cc1cc2ncc3c(=O)n(NS(=O)(=O)c4ccc(N)cc4)ccc3n2n1	> 100	> 100		> 100	> 100	> 100	> 100	> 100	> 100
COC(=O)C1CC2(c3ccccc3)C(=O)c3ccccc3N2O1 (centres undefined)	28.8	81.7	> 100	82.1	> 100	> 100	> 100	> 100	> 100
COc1ccc2c(c1)CC1=C(O2)c2ccc(OC)cc2OC1	35.4	27.2	> 100	> 100	85.1		46.3		52.5
COC(=O)CC(NC(=O)OCc1ccccc1)C(=O)NC(CC(=O)OC)C(=O)NC(CC(=O)OC)C(=O)NC(CC(=O)OC)C(=O)NC(CC(=O)OC)C(=O)NC(CC(=O)OC)C(=O)NN (centres undefined) (Cbz-D(OMe)D(OMe)D(OMe)D(OMe)D(OMe)D(OMe)-NHNH2; configuration not given here)		> 100	> 100	> 100	> 100	> 100	> 100	> 100	
